Experimental data taken from patent US11760754B2, “Heterocyclic mitochondrial activity inhibitors and uses thereof” (UNIVERSITÉ DE MONTRÉAL, priority 2017, dated 2023).
pEC50: −log10 of the molar value.

What was measured:
[1] = tested on: MLL-AF9 cells; test: MLL-AF9 leukemia cell growth inhibition, dose-response viability assay (CellTiterGlo); assay type: cell-based, murine; conditions: Mus musculus, MLL-AF9, 120 h, read-out: MLL-AF9 EC50
Method in brief: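 Murine MLL-AF9 leukemia cells (female, MSCV MLL-AF9 IRES Puro transduced) were treated with serial compound dilutions from 10 μM to 0.5 nM in duplicates or quadruplicates. Viability read by CellTiterGlo dose-response.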

[2] = tested on: OCI-AML3 cells; test: OCI-AML3 cell growth inhibition, dose-response viability assay (CellTiterGlo); assay type: cell-based; conditions: Homo sapiens, OCI-AML-3, 144 h, read-out: AML-3 EC50
Method in brief: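 OCI-AML3 cells seeded, then exposed to compound in serial dilutions from 10 μM to 0.5 nM, in duplicate or quadruplicate. Viability read by CellTiter-Glo.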

With CC(C)NC(=O)OCCc1cn(CCCCc2ccc(OCc3coc(/C=C/c4ccc(C(F)(F)F)cc4F)n3)cc2)nn1 [Compound 98, (E)-2-(1-(4-(4-((2-(2-fluoro-4-(trifluoromethyl)styryl)oxazol-4-yl)methoxy)phenyl)butyl)-1H-1,2,3-triazol-4-yl)ethyl isopropylcarbamate] the pEC50 [1] was 7.00 to 7.30 and the pEC50 [2] was 6.30 to 7.00.
For Fc1cc(/C=C/c2nc(COc3ccc(CCCCn4ccnn4)cc3)co2)cc(F)c1F [Compound 120, (E)-4-((4-(4-(1H-1,2,3-triazol-1-yl)butyl)phenoxy)methyl)-2-(3,4,5-trifluorostyryl)oxazole], the pEC50 [1] was > 7.30 and the pEC50 [2] was 6.30 to 7.00.
For O=C(Nc1ccc(CCCCn2ccnn2)cc1)c1coc(/C=C/c2ccc(C(F)(F)F)cc2)n1 [Compound 30, (E)-N-(4-(4-(1H-1,2,3-triazol-1-yl)butyl)phenyl)-2-(4-(trifluoromethyl)styryl)oxazole-4-carboxamide], the pEC50 [1] was 6.30 to 7.00 and the pEC50 [2] was 6.00 to 6.30.
For FC(F)(F)c1ccc(C2CC2c2nc(COc3ccc(CCCCn4ccnn4)cc3)co2)cc1 (stereo not shown) [Compound 76, 4-((4-(4-(1H-1,2,3-triazol-1-yl)butyl)phenoxy)methyl)-2-(2-(4-(trifluoromethyl)phenyl)cyclopropyl)oxazole], the pEC50 [1] was 5.00 to 6.00 and the pEC50 [2] was 5.00 to 6.00.
Fc1cc(F)c2cc(-c3nc(COc4ccc(CCCCn5ccnn5)cc4)co3)[nH]c2c1 [Compound 128, 4-((4-(4-(1H-1,2,3-triazol-1-yl)butyl)phenoxy)methyl)-2-(4,6-difluoro-1H-indol-2-yl)oxazole] was tested, and the pEC50 [1] was > 7.30 and the pEC50 [2] was > 7.30.
In the case of FC(F)(F)c1ccc(/C=C/c2cccc(COc3ccc(CCCCn4ccnn4)cc3)c2)cc1 [Compound 56, (E)-1-(4-(4-((3-(4-(trifluoromethyl)styryl)benzyl)oxy)phenyl)butyl)-1H-1,2,3-triazole], the pEC50 [1] was 5.00 to 6.00 and the pEC50 [2] was 5.00 to 6.00.
Compound C(=C\c1nc(COc2ccc(CCCCn3ccnn3)cc2)co1)/c1ccccc1 [Compound 47, (E)-4-((4-(4-(1H-1,2,3-triazol-1-yl)butyl)phenoxy)methyl)-2-styryloxazole] has a pEC50 [1] of 6.30 to 7.00 and a pEC50 [2] of 6.30 to 7.00.
Fc1cc(C(F)(F)F)ccc1/C=C/c1nc(COc2ccc(CCCCn3ccnc3)cc2)co1 [Compound 100, (E)-4-((4-(4-(1H-imidazol-1-yl)butyl)phenoxy)methyl)-2-(2-fluoro-4-(trifluoromethyl)styryl)oxazole] was tested, and the pEC50 [1] was 6.00 to 6.30 and the pEC50 [2] was 6.00 to 6.30.
Fc1ccc2cc(-c3nc(COc4ccc(CCCCn5ccnn5)cc4)co3)sc2c1 [Compound 143, 4-((4-(4-(1H-1,2,3-triazol-1-yl)butyl)phenoxy)methyl)-2-(6-fluorobenzo[b]thiophen-2-yl)oxazole] was tested, and the pEC50 [1] was 6.30 to 7.00 and the pEC50 [2] was 5.00 to 6.00.
For C(=C\c1nc(COc2ccc(CCCCn3ccnn3)cc2)co1)/c1ccccn1 [Compound 84, (E)-4-((4-(4-(1H-1,2,3-triazol-1-yl)butyl)phenoxy)methyl)-2-(2-(pyridin-2-yl)vinyl)oxazole], the pEC50 [1] was 5.00 to 6.00 and the pEC50 [2] was 5.00 to 6.00.
Compound CN(C)c1cccc2c(S(=O)(=O)NCCc3cn(CCCCc4ccc(OCc5coc(/C=C/c6ccc(C(F)(F)F)cc6)n5)cc4)nn3)cccc12 [Compound 31, (E)-5-(dimethylamino)-N-(2-(1-(4-(4-((2-(4-(trifluoromethyl)styryl)oxazol-4-yl)methoxy)phenyl)butyl)-1H-1,2,3-triazol-4-yl)ethyl)naphthalene-1-sulfonamide] has a pEC50 [1] of 6.00 to 6.30 and a pEC50 [2] of 5.00 to 6.00.
With N#Cc1ccc(/C=C/c2nc(COc3ccc(CCCCn4ccnn4)cc3)co2)c(F)c1 [Compound 122, (E)-4-(2-(4-((4-(4-(1H-1,2,3-triazol-1-yl)butyl)phenoxy)methyl)oxazol-2-yl)vinyl)-3-fluorobenzonitrile] the pEC50 [1] was > 7.30 and the pEC50 [2] was > 7.30.
In the case of Clc1ccc(/C=C/c2nc(COc3ccc(CCCCn4ccnn4)cc3)co2)c(Cl)c1 [Compound 119, (E)-4-((4-(4-(1H-1,2,3-triazol-1-yl)butyl)phenoxy)methyl)-2-(2,4-dichlorostyryl)oxazole], the pEC50 [1] was 6.30 to 7.00 and the pEC50 [2] was 6.30 to 7.00.
CCOC(=O)c1nnn(CCCCc2ccc(OCc3coc(/C=C/c4ccc(C(F)(F)F)cc4)n3)cc2)c1C(=O)OCC [Compound 6, (E)-diethyl 1-(4-(4-((2-(4-(trifluoromethyl)styryl)oxazol-4-yl)methoxy)phenyl)butyl)-1H-1,2,3-triazole-4,5-dicarboxylate] gave a pEC50 [1] of 5.00 to 6.00 and a pEC50 [2] of 5.00 to 6.00.
Compound OCc1nnn(CCCCc2ccc(OCc3coc(/C=C/c4ccc(C(F)(F)F)cc4)n3)cc2)c1CO [Compound 9, (E)-(1-(4-(4-((2-(4-(trifluoromethyl)styryl)oxazol-4-yl)methoxy)phenyl)butyl)-1H-1,2,3-triazole-4,5-diyl)dimethanol] has a pEC50 [1] of 6.00 to 6.30 and a pEC50 [2] of 5.00 to 6.00.
For C#Cc1ccc(/C=C/c2nc(COc3ccc(CCCCn4ccnn4)cc3)co2)cc1 [Compound 64, (E)-4-((4-(4-(1H-1,2,3-triazol-1-yl)butyl)phenoxy)methyl)-2-(4-ethynylstyryl)oxazole], the pEC50 [1] was 6.00 to 6.30 and the pEC50 [2] was 5.00 to 6.00.
Fc1cc(C(F)(F)F)ccc1/C=C/c1nc(/C=C/c2ccc(CCCCn3ccnn3)cc2)co1 [Compound 111, 4-((E)-4-(4-(1H-1,2,3-triazol-1-yl)butyl)styryl)-2-((E)-2-fluoro-4-(trifluoromethyl)styryl) oxazole] was tested, and the pEC50 [1] was 6.00 to 6.30 and the pEC50 [2] was 5.00 to 6.00.
Compound Fc1cnccc1/C=C/c1nc(COc2ccc(CCCCn3ccnn3)cc2)co1 [Compound 81, (E)-4-((4-(4-(1H-1,2,3-triazol-1-yl)butyl)phenoxy)methyl)-2-(2-(3-fluoropyridin-4-yl)vinyl)oxazole] has a pEC50 [1] of 7.00 to 7.30 and a pEC50 [2] of 7.00 to 7.30.
Compound OCCCCc1cn(CCCCc2ccc(OCc3coc(/C=C/c4ccc(C(F)(F)F)cc4)n3)cc2)nn1 [Compound 5] has a pEC50 [1] of 6.30 to 7.00 and a pEC50 [2] of 5.00 to 6.00.
Work on OCCc1nccn1CCCCc1ccc(OCc2coc(/C=C/c3ccc(C(F)(F)F)cc3)n2)cc1 [Compound 51, (E)-2-(1-(4-(4-((2-(4-(trifluoromethyl)styryl)oxazol-4-yl)methoxy)phenyl)butyl)-1H-imidazol-2-yl)ethanol] yielded a pEC50 [1] of 6.00 to 6.30 and a pEC50 [2] of 5.00 to 6.00.
O=[N+]([O-])c1ccc(/C=C/c2nc(COc3ccc(CCCCn4ccnc4)cc3)co2)c(F)c1 [Compound 99, (E)-4-((4-(4-(1H-imidazol-1-yl)butyl)phenoxy)methyl)-2-(2-fluoro-4-nitrostyryl)oxazole] showed a pEC50 [1] of 6.30 to 7.00 and a pEC50 [2] of 6.30 to 7.00.
For Fc1cc(Br)ccc1/C=C/c1nc(CNc2ccc(CCCCn3ccnn3)cc2)co1 [Compound 27, (E)-4-(4-(1H-1,2,3-triazol-1-yl)butyl)-N-((2-(4-bromo-2-fluorostyryl)oxazol-4-yl)methyl)aniline], the pEC50 [1] was 7.00 to 7.30 and the pEC50 [2] was 6.00 to 6.30.
In the case of O=C(CCCn1ccnn1)c1ccc(OCc2coc(/C=C/c3ccc(OC(F)(F)F)cc3)n2)cc1 [Compound 18, (E)-4-(1H-1,2,3-triazol-1-yl)-1-(4-((2-(4-(trifluoromethoxy)styryl)oxazol-4-yl)methoxy)phenyl)butan-1-one], the pEC50 [1] was 6.00 to 6.30 and the pEC50 [2] was 5.00 to 6.00.
Compound N#Cc1ccc(/C=C/c2nc(COc3ccc(CCCCn4ccnn4)cc3)co2)cc1 [Compound 37, (E)-4-(2-(4-((4-(4-(1H-1,2,3-triazol-1-yl)butyl)phenoxy)methyl)oxazol-2-yl)vinyl)benzonitrile] has a pEC50 [1] of 6.30 to 7.00 and a pEC50 [2] of 6.30 to 7.00.
Fc1cc(C(F)(F)F)ccc1/C=C/c1nc(COc2ccc(SCCCn3ccnn3)cc2)co1 [Compound 130, (E)-4-((4-((3-(1H-1,2,3-triazol-1-yl)propyl)thio)phenoxy)methyl)-2-(2-fluoro-4-(trifluoromethyl)styryl)oxazole] was tested, and the pEC50 [1] was > 7.30 and the pEC50 [2] was > 7.30.
Compound Fc1cc(C(F)(F)F)ccc1/C=C/c1nc(COc2ccc(OCCCn3ccnn3)cc2)co1 [Compound 109, (E)-4-((4-(3-(1H-1,2,3-triazol-1-yl)propoxy)phenoxy)methyl)-2-(2-fluoro-4-(trifluoromethyl)styryl)oxazole] has a pEC50 [1] of 6.30 to 7.00 and a pEC50 [2] of 6.00 to 6.30.
In the case of Fc1cc(C(F)(F)F)ccc1/C=C/c1nc(COc2ccc(CCCCc3ccncc3)cc2)co1 [Compound 104, (E)-2-(2-fluoro-4-(trifluoromethyl)styryl)-4-((4-(4-(pyridin-4-yl)butyl)phenoxy)methyl)oxazole], the pEC50 [1] was 5.00 to 6.00 and the pEC50 [2] was 5.00 to 6.00.
Brc1ccc(/C=C/c2nc(COc3ccc(CCCCn4ccnn4)cc3)co2)cc1 [Compound 33, (E)-4-((4-(4-(1H-1,2,3-triazol-1-yl)butyl)phenoxy)methyl)-2-(4-bromostyryl)oxazole] showed a pEC50 [1] of 6.30 to 7.00 and a pEC50 [2] of 6.30 to 7.00.
With COC(=O)c1ccc(/C=C/c2nc(COc3ccc(CCCCn4ccnn4)cc3)co2)c(F)c1 [Compound 125, methyl (E)-4-(2-(4-((4-(4-(1H-1,2,3-triazol-1-yl)butyl)phenoxy)methyl)oxazol-2-yl)vinyl)-3-fluorobenzoate] the pEC50 [1] was 6.30 to 7.00 and the pEC50 [2] was 7.00 to 7.30.
Clc1ccccc1/C=C/c1nc(COc2ccc(CCCCn3ccnn3)cc2)co1 [Compound 118, (E)-4-((4-(4-(1H-1,2,3-triazol-1-yl)butyl)phenoxy)methyl)-2-(2-chlorostyryl)oxazole] gave a pEC50 [1] of 6.30 to 7.00 and a pEC50 [2] of 6.30 to 7.00.
For CS(=O)(=O)c1ccc(/C=C/c2nc(COc3ccc(CCCCn4ccnn4)cc3)co2)c(F)c1 [Compound 123, (E)-4-((4-(4-(1H-1,2,3-triazol-1-yl)butyl)phenoxy)methyl)-2-(2-fluoro-4-(methylsulfonyl)styryl)oxazole], the pEC50 [1] was 6.30 to 7.00 and the pEC50 [2] was 6.30 to 7.00.
O=[N+]([O-])c1ccc(/C=C/c2nc(COc3ccc(CCCCn4ccnn4)cc3)co2)c(Oc2ccc(CCCCn3ccnn3)cc2)c1 [Compound 101, (E)-2-(2-(4-(4-(1H-1,2,3-triazol-1-yl)butyl)phenoxy)-4-nitrostyryl)-4-((4-(4-(1H-1,2,3-triazol-1-yl)butyl)phenoxy)methyl)oxazole] was tested, and the pEC50 [1] was 5.00 to 6.00 and the pEC50 [2] was 5.00 to 6.00.
